Results as given in BindingDB's records for patent US20230271968 (Beijing Tide Pharmaceutical, 2023).

Target: Serine/threonine-protein kinase ATR (Homo sapiens, UniProt Q13535)
Experiment: Assay of ATR Kinase Activity
Procedure: The amount of phosphorylated protein was determined by time-resolved fluorescence in this assay. The amount of phosphorylated protein was detected by anti-p53-phospho-(serine 15)-K-specific antibody (Cisbio, art. No.: 61GSTDLA) and d2 labeled anti-GST antibody (Cisbio, art. No. 61P08KAE). […] The reagents used above were purchased from Sigma or Invitrogen, except for those whose manufacturers were mentioned.

Serine/threonine-protein kinase ATR, sequence (Q13535 whole entry): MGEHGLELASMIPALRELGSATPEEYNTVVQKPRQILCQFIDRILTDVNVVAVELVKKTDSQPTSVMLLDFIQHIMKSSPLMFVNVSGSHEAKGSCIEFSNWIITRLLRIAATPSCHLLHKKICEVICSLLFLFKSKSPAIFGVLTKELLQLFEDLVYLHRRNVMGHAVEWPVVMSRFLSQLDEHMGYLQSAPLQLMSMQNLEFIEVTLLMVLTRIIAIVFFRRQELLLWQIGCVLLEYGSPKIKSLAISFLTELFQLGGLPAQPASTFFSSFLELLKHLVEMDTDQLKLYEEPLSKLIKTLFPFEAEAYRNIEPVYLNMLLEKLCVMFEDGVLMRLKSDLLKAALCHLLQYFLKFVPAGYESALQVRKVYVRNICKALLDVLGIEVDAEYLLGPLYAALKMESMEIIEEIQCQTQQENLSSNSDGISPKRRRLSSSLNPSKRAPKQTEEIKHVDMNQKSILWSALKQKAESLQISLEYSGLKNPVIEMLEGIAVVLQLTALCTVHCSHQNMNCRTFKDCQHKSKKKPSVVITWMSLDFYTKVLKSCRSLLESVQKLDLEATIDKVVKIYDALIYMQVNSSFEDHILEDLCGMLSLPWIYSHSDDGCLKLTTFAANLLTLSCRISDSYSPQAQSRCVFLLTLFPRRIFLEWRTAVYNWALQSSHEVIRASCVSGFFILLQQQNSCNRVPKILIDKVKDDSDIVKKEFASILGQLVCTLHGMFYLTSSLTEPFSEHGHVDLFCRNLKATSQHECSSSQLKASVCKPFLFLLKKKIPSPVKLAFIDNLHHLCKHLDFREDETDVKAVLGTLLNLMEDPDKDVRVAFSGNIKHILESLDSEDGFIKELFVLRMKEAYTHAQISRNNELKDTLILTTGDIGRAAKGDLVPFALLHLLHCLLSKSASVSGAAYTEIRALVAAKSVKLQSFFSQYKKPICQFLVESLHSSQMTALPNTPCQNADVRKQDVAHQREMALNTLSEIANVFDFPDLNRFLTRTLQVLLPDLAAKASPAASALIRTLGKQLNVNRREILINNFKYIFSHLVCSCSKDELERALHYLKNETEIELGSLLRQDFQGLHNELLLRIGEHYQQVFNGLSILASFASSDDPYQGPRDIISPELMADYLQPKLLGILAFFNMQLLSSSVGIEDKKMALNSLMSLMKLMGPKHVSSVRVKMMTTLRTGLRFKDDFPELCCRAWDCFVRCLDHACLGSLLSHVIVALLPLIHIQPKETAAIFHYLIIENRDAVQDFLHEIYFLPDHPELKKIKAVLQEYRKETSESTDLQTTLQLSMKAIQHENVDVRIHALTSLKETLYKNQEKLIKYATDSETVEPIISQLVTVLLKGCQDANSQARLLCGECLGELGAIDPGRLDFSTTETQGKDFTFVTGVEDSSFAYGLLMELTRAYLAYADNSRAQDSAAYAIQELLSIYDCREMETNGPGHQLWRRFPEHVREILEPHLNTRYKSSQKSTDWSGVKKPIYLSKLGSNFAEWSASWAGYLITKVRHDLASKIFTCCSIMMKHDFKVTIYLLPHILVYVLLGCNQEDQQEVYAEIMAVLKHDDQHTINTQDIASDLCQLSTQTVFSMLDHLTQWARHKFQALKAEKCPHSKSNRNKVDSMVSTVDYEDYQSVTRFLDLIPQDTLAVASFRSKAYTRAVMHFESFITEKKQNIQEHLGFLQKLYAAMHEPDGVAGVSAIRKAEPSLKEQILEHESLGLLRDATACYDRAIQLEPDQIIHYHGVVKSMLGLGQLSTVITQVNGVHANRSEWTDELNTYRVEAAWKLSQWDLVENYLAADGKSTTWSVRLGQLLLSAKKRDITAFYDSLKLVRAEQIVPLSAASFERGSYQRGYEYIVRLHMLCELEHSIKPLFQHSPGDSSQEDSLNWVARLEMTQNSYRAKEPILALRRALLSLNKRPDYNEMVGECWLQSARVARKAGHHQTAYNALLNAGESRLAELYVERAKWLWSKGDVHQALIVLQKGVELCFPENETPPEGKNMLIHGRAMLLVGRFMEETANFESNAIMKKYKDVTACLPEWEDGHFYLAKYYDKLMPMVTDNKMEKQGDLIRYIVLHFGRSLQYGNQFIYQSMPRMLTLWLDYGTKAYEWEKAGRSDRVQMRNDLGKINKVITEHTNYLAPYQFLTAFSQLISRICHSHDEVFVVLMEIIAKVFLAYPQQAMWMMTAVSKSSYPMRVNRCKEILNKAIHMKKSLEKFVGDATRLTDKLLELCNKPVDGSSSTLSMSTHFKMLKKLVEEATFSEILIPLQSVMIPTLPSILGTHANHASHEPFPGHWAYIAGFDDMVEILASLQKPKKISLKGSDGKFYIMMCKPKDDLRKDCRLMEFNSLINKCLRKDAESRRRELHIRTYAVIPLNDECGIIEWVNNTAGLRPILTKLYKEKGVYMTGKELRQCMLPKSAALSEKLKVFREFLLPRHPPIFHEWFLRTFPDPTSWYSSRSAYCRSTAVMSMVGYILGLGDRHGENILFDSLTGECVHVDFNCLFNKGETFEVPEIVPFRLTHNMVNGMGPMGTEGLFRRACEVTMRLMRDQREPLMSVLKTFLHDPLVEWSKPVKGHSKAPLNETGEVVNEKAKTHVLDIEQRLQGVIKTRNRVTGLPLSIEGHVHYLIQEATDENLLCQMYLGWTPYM

Cc1nn(-c2cncc(C#N)c2)c(C)c1-c1cc(N2CCOC[C@H]2C)nc2c(-c3ccn[nH]3)cnn12 [US20230271968, Compound A11] was tested, and the IC50 was 9 nM.
